# Laboratory results taken from patent US6951887B2 (The Research Foundation of State University of New York, priority 1998, dated 2005).
# Tests used:
# Type in all cases: cell-based
# SW480 (Colon) = test: killing of cultured cells, SW480; design: key: “+” indicates that the cells were killed by treatment; “−” indicates that they were not; “+/−” indicates a slow marginal response seen only in a few special cases with fibroblasts experimentally transformed by introduction of the ras oncogene; conditions: compound at two to fourfold above its threshold killing concentration
# From the text: (§1) Table 1: Summarized are the responses of cells in culture to killing by example members of the family of blocked lipoate derivatives that are the object of this invention as well as one control compound (dihydroxyoctanoic acid). At right is indicated the specific cell line followed by the tissue of origin of the cell line. Across the top are listed the specific compounds tested. Each blocked lipoate derivative was used at two to fourfold above its threshold killing concentration. [These concentrations range form 0.15 mM (60 ug/ml or 60 mg/kg) to 2.5 mM (800 ug/ml or 800 mg/kg) (see EXAMPLE 11).] […] “+/−” indicates a slow marginal response seen only in a few special cases with fibroblasts experimentally transformed by introduction of the ras oncogene (EXAMPLE 10).
# (§2) First, each cell type to be tested was plated at low densities in the wells of a standard 6×24 well tissue culture plate. (Multiple wells are seeded for each cell type.)
# (§3) Second, the cells were allowed to grow to moderate densities. Transformed cells are in contact and non-transformed cells are contact-inhibited under these conditions.
# (§4) Third, the lipoate derivatives to be tested were added to individual wells. In these experiments each compound was added at two to fourfold above the threshold killing concentration for cancer cells (EXAMPLE 11).
# (§5) Fourth, cells were monitored over the next several days.
# HeLa (Cervix) = test: killing of cultured cells, HeLa; design: key to cells killed by treatment: “+” indicates that the cells were killed by treatment; “−” indicates that they were not; “+/−” indicates a slow marginal response seen only in a few special cases with fibroblasts experimentally transformed by introduction of the ras oncogene
# From the text: as §1, §2, §3, §4, §5
# RD (Embryo) = test: killing of cultured cells, RD; design: key to cells killed by treatment: “+” indicates that the cells were killed by treatment; “−” indicates that they were not; “+/−” indicates a slow marginal response seen only in a few special cases with fibroblasts experimentally transformed by introduction of the ras oncogene
# From the text: as §1, §2, §3, §4, §5
# cancer cells in culture = test: threshold killing concentration and dose response in cultured cells
# From the text: First, each compound killed cancer cells in culture at or above a relatively narrow, specific concentration range, but not below. The threshold concentrations given below represent the approximate center of this range which extended roughly two to threefold. […] Below these saturation ranges, sensitive cells survived and grew. They could be removed and replated to grow, apparently indefinitely, under these conditions. […] This was a highly unusual dose/response profile. The threshold killing concentrations (ranges) varied between individual compounds. Examples of these threshold killing concentrations were as follows: bis-benzoyl lipoate (EXAMPLE 3) 60 mg/liter (60 mg/kg), monoacetyl lipoate (EXAMPLE 4) 100 mg/liter (100 mg/kg); bis-acetyl lipoate (EXAMPLE 2) 600 mg/liter (600 mg/kg).
# These changes were ultimately followed by cell death if treatment was continued. However, these morphological changes were reversed, and the cells recovered, if the lipoate derivative was removed during this initial exposure. As with the dose/response profile of the preceeding paragraph, this reversible induction of morphological change followed by commitment to cell death is highly idiosyncratic. The discovery that this behavior was shown by all tested members of the class of compounds that are the object of this invention was, again, very strong evidence that these compounds are, in fact, a functionally coherent class.
# [1] = tested on: HeLa (cervical cancer) cells; test: TUNEL assay for apoptosis; conditions: ca. 20-24 hours, ca. twofold above threshold killing concentration
# From the text: In order to understand the experiment described in this Example is necessary to review details concerning the specific assay used in the experiments. Nuclear DNA of cells is normally present in the very long molecules making up chromosomes. These very long polymer molecules have only extremely rare free ends. In contrast, after the induction of apoptosis the cell begins to destroy itself and, in the process, introduces an extremely large number of breaks in its DNA in the process of reducing it to its small monomer constituents. The appropriate enzyme —terminal transferase—will add nucleotides to the free ends of DNA molecules. Moreover, this enzyme will use monomers (nucleotides) for this addition reaction that have highly fluorescent groups added to them. Thus, if the nuclei of normal cells—with few free DNA ends—are exposed to terminal transferase and fluorescent monomers very little fluorescence is added to these nuclei. In contrast, when these components are added to the nuclei of cells undergoing apoptosis and very large number of fluorescent monomers are added—to the very many DNA ends that are present—resulting in a massive introduction of fluorescence. The conventional assay based on these properties is referred by the acronym TUNEL. […] HeLa cancerous cells were plated in several wells in a tissue culture dish. […]
# HeLa cells = test: killing of HeLa cells with or without dichloroacetate (DCA); conditions: compound ca. twofold above threshold killing dose plus 5 mM DCA
# Procedure: HeLa cells were plated at moderate densities and allowed to attach and grow for ca. 24 hours in a series of wells in a multi-well tissue culture plate. To individual wells of the first subset (control) were added bis-acetyl lipoate, mono-acetyl lipoate or bis-benzoyl lipoate—each at ca. twofold above the threshold killing dose (EXAMPLE 11). To an equivalent (experimental) subset of wells were added these same compounds at the same dose together with the simultaneous addition of DCA to 5 mM final concentration.
structure (smiles),measurement,setting,value
"O=C(O)CCCCC(CCSC(=O)c1ccccc1)SC(=O)c1ccccc1 (stereo not drawn) [bis-benzoyl lipoate, 6,8-bisbenzoylmercaptooctanoic acid]",cells killed by treatment,SW480 (Colon),+
same,cells killed by treatment,"HeLa (Cervix); Cervix, compound at two to fourfold above its threshold killing concentration",+
same,time by which all cancer cells are killed,HeLa (Cervix); conditions of FIG. 3,48 to 60 h
same,"cell killing, embryonic cancer cells (FIG. 1)","RD (Embryo); 120 ug/ml, ca. 48 hours",efficiently killed
same,cells killed by treatment,"RD (Embryo); RD, Embryo, compound at two to fourfold above its threshold killing concentration",+
same,effective dose in cell culture,cancer cells in culture,60 µg/mL
same,threshold killing concentration,cancer cells in culture; approximate center of a range extending two to threefold,60 mg/L
same,induction of apoptosis (TUNEL),[1],induces apoptosis
same,speed of cell killing with DCA relative to compound alone,HeLa cells,approximately twvice as rapidly
